Consider eleven molecules from patent US12187759B2, “TLR7 agonists” (Primmune Therapeutics, Inc., priority 2019, dated 2025).

In general, EC50 refers to the midpoint of the concentration-response curve. Higher therefore signals lower potency in that assay.

One assay has as its target T1, human TLR7 (Homo sapiens, UniProt Q9NYK1).
T1 construct: host or cells: HEK293
T1 sequence (Q9NYK1 27-1049): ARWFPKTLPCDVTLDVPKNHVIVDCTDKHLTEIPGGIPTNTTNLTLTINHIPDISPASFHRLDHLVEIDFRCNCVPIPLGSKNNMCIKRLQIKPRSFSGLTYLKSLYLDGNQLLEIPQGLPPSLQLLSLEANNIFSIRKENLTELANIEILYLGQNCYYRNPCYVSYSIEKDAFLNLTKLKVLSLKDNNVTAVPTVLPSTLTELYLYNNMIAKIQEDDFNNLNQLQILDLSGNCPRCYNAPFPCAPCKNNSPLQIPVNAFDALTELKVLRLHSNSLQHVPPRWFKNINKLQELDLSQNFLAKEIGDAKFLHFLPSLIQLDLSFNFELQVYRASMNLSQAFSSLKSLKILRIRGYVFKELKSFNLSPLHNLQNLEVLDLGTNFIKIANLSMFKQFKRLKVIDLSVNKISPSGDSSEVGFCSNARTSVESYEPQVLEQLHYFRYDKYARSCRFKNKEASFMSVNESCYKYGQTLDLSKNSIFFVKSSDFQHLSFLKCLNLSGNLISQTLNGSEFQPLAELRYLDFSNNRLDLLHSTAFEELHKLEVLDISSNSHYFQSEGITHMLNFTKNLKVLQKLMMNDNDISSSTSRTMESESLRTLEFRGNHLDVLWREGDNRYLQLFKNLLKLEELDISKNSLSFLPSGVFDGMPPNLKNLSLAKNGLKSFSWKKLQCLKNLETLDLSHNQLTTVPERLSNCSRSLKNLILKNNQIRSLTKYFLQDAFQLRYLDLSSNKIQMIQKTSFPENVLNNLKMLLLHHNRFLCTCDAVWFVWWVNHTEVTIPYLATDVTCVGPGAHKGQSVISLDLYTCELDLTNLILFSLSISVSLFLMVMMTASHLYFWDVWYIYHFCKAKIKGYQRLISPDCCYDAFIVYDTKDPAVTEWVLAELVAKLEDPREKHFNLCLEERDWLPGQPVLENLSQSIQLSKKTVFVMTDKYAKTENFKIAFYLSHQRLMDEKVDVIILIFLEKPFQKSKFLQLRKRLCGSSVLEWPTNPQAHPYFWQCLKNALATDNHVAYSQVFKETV
Put plainly: TLR7 reporter cell assay (HEK293 cells stably expressing human TLR7 with NF-κB-driven SEAP reporter). The conditions noted are these: 15-24 hours; for Emax at 500 µM: HEK293, 500 μM compound, SEAP activity (OD 650 nm) relative to 28.5 μM resiquimod, read-out: Response at 500 μM Compound as a Percent of Resiquimod Response; for EC50: fit of SEAP dose response, ymax from 28.5 μM resiquimod. The format is cell-based. An excerpt:
The engagement of TLRs by cognate ligands triggers downstream signaling cascades, leading to the activation of NF-κB and other transcription factors which initiate various immunomodulatory effects. The human embryonic kidney cell line, HEK293, is essentially non-responsive to TLR agonists, but ectopic expression of TLRs in these cells allows cognate agonists to activate endogenous NF-κB. Accordingly, the HEK293-TLR-NF-κB inducible reporter system is used to assay TLR agonists.
HEK293 cell lines stably expressing human TLR7 or TLR8 together with an NF-κB-driven-secreted alkaline phosphatase (SEAP) reporter were invented at InvivoGen (San Diego, California, USA) and used to assess compounds of the present invention for TLR7 and TLR8 agonist activities. Cells were seeded at 2-5×10^4 cells/well in 96 well plates (200 μl/well) and treated with various concentrations of compound (10 μl) for 15-24 hours. SEAP activity was determined by measuring OD at 650 nm; the media used to culture the cell lines contains the reagents required for SEAP detection. The EC50 values in Table 1 are calculated from fitting the dose response of measured SEAP activity for each compound to the following equation: Y=ymax*c^nh/(EC50^nh+c^nh)+blank where Y is the experimentally measured OD650 at concentration c of test article, blank is the observed OD650 in the absence of TLR7 agonist, ymax is the difference between the measured OD650 in the presence of 28.5 μM resiquimod and the blank and values of EC50 and nh are determined by nonlinear least squares analysis. Resiquimod is a known TLR7 and TLR8 agonist.
Compound A is 5-amino-3-((2R,3R,5S)-3-hydroxy-5-((S)-1-hydroxypropyl)tetrahydrofuran-2-yl)thiazolo[4,5-d]pyrimidine-2,7(3H,6H)-dione)

The subject of assay [1] is hPBMCs (Human Peripheral Blood Mononuclear Cells). Briefly: Induction of interferon-α in hPBMCs in vitro. Format: cell-based. Conditions: Homo sapiens, PBMC; for Emax: 24 h, peak IFNα2a as percentage of peak response of standard 2-Amino-7-(cyclopropylmethyl)-9-B-D-xylofuranosyl-7,9-dihydro-1H-purine-6,8-dione, averaged across donors, read-out: IFNrmax, Relative Maximal IFNα2a Production (%); for minimal effective concentration: minimal effective concentration for interferon-α production (generally at least 80 pg/ml above baseline), geometric mean across at least three donors, 24 hours, read-out: Weighted MEC. Here is the method: Treatment of hPBMCs with a TLR7 agonist typically induces some production of interferon-α as well as lesser amounts of a variety of other cytokines and chemokines. A typical experiment uses hPBMCs isolated from a healthy donor and placed in replicate cell culture wells; typically 1.0-7.5×10^6 cells are placed in each well. A test compound is added and the cells are cultured for 24 hours at 37° C. in a humidified atmosphere containing 5% CO2 post-addition; untreated controls are included. Secreted interferon-α production is measured using an a multisubtype interferon-α ELISA kit like those from PBL Assay Sciences or specifically as IFNα2a as part of a panel of cytokines and chemokines using luminex methodologies.
The minimal effective concentration (MEC) is the minimum concentration in a dose response curve where a significant increase in interferon-α production (generally at least 80 pg/ml) is observed above baseline. MEC values for each compound are determined for at least three donors. The weighted MEC for each compound is the geometric mean of all individual MECs across all donors. Concentrations tested typically consist of a two-fold dilution series starting at 100 μM. In the calculation of weighted MEC, any individual MEC value greater the highest concentration tested is arbitrarily set to two times the highest concentration tested unless all MECs for a compound exceed this value. The maximal amount of IFNα2a for each donor is determined from dose dependence for each compound.
In order to normalize for variation in each hPBMC preparation, these values are first transformed by expressing as a percentage of peak response measured with a standard (2-Amino-7-(cyclopropylmethyl)-9-B-D-xylofuranosyl-7,9-dihydro-1H-purine-6,8-dione) and then averaging the results across all donors, this average referred to as IFNrmax.
IFNmax is the maximum amount of IFN observed at any concentration across the evaluated concentration range. MEC and IFNmax values for three select compound are shown for three donors (Table 3). The range of tested concentrations were 0.625-5 μM for Imiquimod, 3.125-100 μM for both Compound A and Compound 1, 12.5-100 μM for Compound 2.

In the case of `C#CCn1c(=O)n([C@@H]2O[C@H](C(C)(C)O)[C@H](F)[C@H]2O)c2nc(N)[nH]c(=O)c21` [Compound 19, 2-Amino-9-((2R,3S,4R,5R)-4-fluoro-3-hydroxy-5-(2-hydroxypropan-2-yl)tetrahydrofuran-2-yl)-7-(prop-2-yn-1-yl)-7,9-dihydro-1H-purine-6,8-dione], the Emax at 500 µM on human TLR7 is under 5%. Further, in assay [1], the Emax was at most 10% and the minimal effective concentration was over 50 µM.
`CC[C@H](O)[C@@H]1C[C@@H](O)[C@H](n2c(=O)n(CCSC)c3c(=O)[nH]c(N)nc32)O1` [Compound 22, 2-Amino-9-((2R,3R,5S)-3-hydroxy-5-((S)-1-hydroxypropyl)tetrahydrofuran-2-yl)-7-(2-(methylthio)ethyl)-7,9-dihydro-1H-purine-6,8-dione]: on human TLR7, the Emax at 500 µM worked out at 69% and it took 224 µM to reach a half-maximal effect (EC50). Moreover, in assay [1], the Emax was found to be 307% and the minimal effective concentration was determined as 6.3 µM.
Turning to `C#CCn1c(=O)n([C@@H]2O[C@H]([C@H](O)CF)C[C@H]2O)c2nc(N)[nH]c(=O)c21` [Compound 23, 2-Amino-9-((2R,3R,5S)-5-((S)-2-fluoro-1-hydroxyethyl)-3-hydroxytetrahydrofuran-2-yl)-7-(prop-2-yn-1-yl)-7,9-dihydro-1H-purine-6,8-dione], the Emax at 500 µM at human TLR7 was under 5%. Moreover, in assay [1], the Emax is at most 10% and the minimal effective concentration was over 50 µM.
As to `C#CCn1c(=O)n([C@@H]2O[C@H]([C@@H](O)CF)C[C@H]2O)c2nc(N)[nH]c(=O)c21` [Compound 24, 2-Amino-9-((2R,3R,5S)-5-((R)-2-fluoro-1-hydroxyethyl)-3-hydroxytetrahydrofuran-2-yl)-7-(prop-2-yn-1-yl)-7,9-dihydro-1H-purine-6,8-dione], at human TLR7, the Emax at 500 µM is 52% and the midpoint of the response, the EC50, lay at 327 µM. In assay [1], the Emax was 205% and the minimal effective concentration is 12.5 µM.
Regarding `CCCn1c(=O)n([C@@H]2O[C@H]([C@@H](O)C(F)(F)F)C[C@H]2O)c2nc(N)[nH]c(=O)c21` [Compound 25, 2-Amino-9-((2R,3R,5S)-3-hydroxy-5-((R)-2,2,2-trifluoro-1-hydroxyethyl)tetrahydrofuran-2-yl)-7-propyl-7,9-dihydro-1H-purine-6,8-dione], on human TLR7, the Emax at 500 µM is 74% and the EC50 was 324 µM. Besides, in assay [1], the Emax came to 80% and the minimal effective concentration is 19.8 µM.
As for `CCCn1c(=O)n([C@@H]2O[C@H]([C@@H](O)CC)[C@H](F)[C@H]2O)c2nc(N)[nH]c(=O)c21` [Compound 26, 2-Amino-9-((2R,3S,4R,5R)-4-fluoro-3-hydroxy-5-((S)-1-hydroxypropyl)tetrahydrofuran-2-yl)-7-propyl-7,9-dihydro-1H-purine-6,8-dione], at human TLR7, the Emax at 500 µM turned out to be 59% and the 50% effective concentration (EC50) turned out to be 269 µM. Besides, in assay [1], the Emax was determined as 304% and the minimal effective concentration is at most 1.6 µM.
For `CC[C@H](O)[C@H]1O[C@@H](n2c(=O)n(CCC(F)(F)F)c3c(=O)[nH]c(N)nc32)[C@H](O)[C@H]1F` [Compound 27, 2-Amino-9-((2R,3S,4R,5R)-4-fluoro-3-hydroxy-5-((S)-1-hydroxypropyl)tetrahydrofuran-2-yl)-7-(3,3,3-trifluoropropyl)-7,9-dihydro-1H-purine-6,8-dione], on human TLR7, the Emax at 500 µM stood at 61% and the EC50 is 339 µM. In assay [1], the Emax came out at 209% and the minimal effective concentration is at most 1.6 µM.
Consider `Nc1nc2c(c(=O)[nH]1)n(CCC(F)(F)F)c(=O)n2[C@@H]1O[C@H]([C@@H](O)C(F)(F)F)C[C@H]1O` [Compound 28, 2-Amino-9-((2R,3R,5S)-3-hydroxy-5-((R)-2,2,2-trifluoro-1-hydroxyethyl)tetrahydrofuran-2-yl)-7-(3,3,3-trifluoropropyl)-7,9-dihydro-1H-purine-6,8-dione], for which, on human TLR7, the Emax at 500 µM turned out to be 47% and the midpoint of the response, the EC50, lay at 519 µM. Besides, in assay [1], the Emax came to 105% and the minimal effective concentration stood at 9.9 µM.
For the molecule `Nc1nc2c(c(=O)[nH]1)n(CC1CC1)c(=O)n2[C@@H]1O[C@H]([C@@H](O)C(F)(F)F)C[C@H]1O` [Compound 29, 2-Amino-7-(cyclopropylmethyl)-9-((2R,3R,5S)-3-hydroxy-5-((R)-2,2,2-trifluoro-1-hydroxyethyl)tetrahydrofuran-2-yl)-7,9-dihydro-1H-purine-6,8-dione], on human TLR7, the Emax at 500 µM stood at 79% and the concentration for a half-maximal effect (EC50) is 201 µM. Further, in assay [1], the Emax worked out at 83% and the minimal effective concentration worked out at 6.3 µM.
As for `CCCCn1c(=O)n([C@@H]2O[C@H]([C@@H](O)CC)[C@H](F)[C@H]2O)c2nc(N)[nH]c(=O)c21` [Compound 30, 2-Amino-7-butyl-9-((2R,3S,4R,5R)-4-fluoro-3-hydroxy-5-((S)-1-hydroxypropyl)tetrahydrofuran-2-yl)-7,9-dihydro-1H-purine-6,8-dione], at human TLR7, the Emax at 500 µM is 87% and the response was half-maximal at 94 µM (EC50). Besides, in assay [1], the Emax stood at 347% and the minimal effective concentration was 1.6 µM.
In the case of `CCCCn1c(=O)n([C@@H]2O[C@H]([C@@H](O)C(F)(F)F)C[C@H]2O)c2nc(N)[nH]c(=O)c21` [Compound 31, 2-Amino-7-butyl-9-((2R,3R,5S)-3-hydroxy-5-((R)-2,2,2-trifluoro-1-hydroxyethyl)tetrahydrofuran-2-yl)-7,9-dihydro-1H-purine-6,8-dione], on human TLR7, the Emax at 500 µM amounted to 78% and it took 210 µM to reach a half-maximal effect (EC50). In assay [1], the Emax is 71% and the minimal effective concentration was 6.3 µM.
